Active and inactive are the calls of the source.
Experiments:
[1] = biological target: Peroxisome proliferator-activated receptor gamma/Nuclear receptor corepressor 2 (Homo sapiens, UniProt P37231+Q9Y618); assay: Counterscreen for NR2E3 inverse agonists: TR-FRET-based biochemical high throughput dose response assay to identify inverse agonists of the interaction between peroxisome proliferator-activated receptor gamma (PPARg) and nuclear receptor co-repressor 2 (NCOR2).; type: functional
[2] = biological target: Photoreceptor-specific nuclear receptor (Homo sapiens, UniProt Q9Y5X4); assay: ligands suppressing NR2E3 nuclear receptor activity – biochemical, TR-FRET, dose response (AID 463256); type: functional
Chain of Photoreceptor-specific nuclear receptor (Q9Y5X4 whole entry): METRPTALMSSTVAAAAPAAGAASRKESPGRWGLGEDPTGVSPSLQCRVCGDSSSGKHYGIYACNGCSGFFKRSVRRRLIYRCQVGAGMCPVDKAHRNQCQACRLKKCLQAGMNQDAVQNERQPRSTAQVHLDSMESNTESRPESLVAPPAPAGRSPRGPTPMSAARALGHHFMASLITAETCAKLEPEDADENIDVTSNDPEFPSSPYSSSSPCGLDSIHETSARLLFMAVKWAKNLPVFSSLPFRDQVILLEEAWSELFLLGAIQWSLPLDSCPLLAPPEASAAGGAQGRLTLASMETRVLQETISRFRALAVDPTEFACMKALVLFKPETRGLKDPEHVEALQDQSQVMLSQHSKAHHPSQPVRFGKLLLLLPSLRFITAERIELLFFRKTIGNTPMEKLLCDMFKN

[3] = biological target: Voltage-gated inwardly rectifying potassium channel KCNH2 (Homo sapiens, UniProt Q12809); assay: concentration-dependent hERG rescue from blockers – cell-based, thallium flux, dose response (AID 2121); type: ADME
Chain of Voltage-gated inwardly rectifying potassium channel KCNH2 (Q12809 whole entry): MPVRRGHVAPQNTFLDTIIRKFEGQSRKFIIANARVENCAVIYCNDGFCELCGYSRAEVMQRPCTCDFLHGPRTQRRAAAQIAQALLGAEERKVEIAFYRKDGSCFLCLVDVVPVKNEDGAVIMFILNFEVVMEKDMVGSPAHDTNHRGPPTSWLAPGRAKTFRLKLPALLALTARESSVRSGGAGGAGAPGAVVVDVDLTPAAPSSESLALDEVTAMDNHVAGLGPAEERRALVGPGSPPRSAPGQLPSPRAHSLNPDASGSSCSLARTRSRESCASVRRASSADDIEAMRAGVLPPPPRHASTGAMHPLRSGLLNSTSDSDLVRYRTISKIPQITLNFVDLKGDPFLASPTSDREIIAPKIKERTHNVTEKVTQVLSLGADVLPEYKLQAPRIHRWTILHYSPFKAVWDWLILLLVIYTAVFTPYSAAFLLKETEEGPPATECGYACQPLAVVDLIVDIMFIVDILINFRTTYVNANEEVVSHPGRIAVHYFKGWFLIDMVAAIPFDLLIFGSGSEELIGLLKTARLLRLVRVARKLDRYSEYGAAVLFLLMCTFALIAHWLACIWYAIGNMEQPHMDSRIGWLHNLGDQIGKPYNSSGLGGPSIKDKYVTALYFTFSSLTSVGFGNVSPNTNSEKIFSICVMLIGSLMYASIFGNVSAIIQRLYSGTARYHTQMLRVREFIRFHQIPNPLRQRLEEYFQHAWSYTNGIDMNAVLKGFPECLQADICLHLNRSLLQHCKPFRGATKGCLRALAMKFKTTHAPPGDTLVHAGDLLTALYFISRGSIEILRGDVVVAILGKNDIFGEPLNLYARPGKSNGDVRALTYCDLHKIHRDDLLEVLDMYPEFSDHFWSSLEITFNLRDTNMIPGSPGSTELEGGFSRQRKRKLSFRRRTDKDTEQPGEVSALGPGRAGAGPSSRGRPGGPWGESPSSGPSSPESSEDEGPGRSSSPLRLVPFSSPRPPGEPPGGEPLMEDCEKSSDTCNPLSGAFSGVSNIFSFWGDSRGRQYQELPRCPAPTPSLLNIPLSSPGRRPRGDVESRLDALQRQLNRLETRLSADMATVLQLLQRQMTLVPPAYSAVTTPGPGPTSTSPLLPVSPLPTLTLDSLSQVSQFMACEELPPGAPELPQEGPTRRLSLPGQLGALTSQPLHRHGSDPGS

[4] = biological target: T1, NADPH oxidase 1 (Homo sapiens, UniProt Q9Y5S8); assay: Late-stage luminescence-based cell-based dose response assay to identify inhibitors of NADPH oxidase 1 (NOX1): Purchased analogs 2.; type: functional
T1 sequence (Q9Y5S8 whole entry): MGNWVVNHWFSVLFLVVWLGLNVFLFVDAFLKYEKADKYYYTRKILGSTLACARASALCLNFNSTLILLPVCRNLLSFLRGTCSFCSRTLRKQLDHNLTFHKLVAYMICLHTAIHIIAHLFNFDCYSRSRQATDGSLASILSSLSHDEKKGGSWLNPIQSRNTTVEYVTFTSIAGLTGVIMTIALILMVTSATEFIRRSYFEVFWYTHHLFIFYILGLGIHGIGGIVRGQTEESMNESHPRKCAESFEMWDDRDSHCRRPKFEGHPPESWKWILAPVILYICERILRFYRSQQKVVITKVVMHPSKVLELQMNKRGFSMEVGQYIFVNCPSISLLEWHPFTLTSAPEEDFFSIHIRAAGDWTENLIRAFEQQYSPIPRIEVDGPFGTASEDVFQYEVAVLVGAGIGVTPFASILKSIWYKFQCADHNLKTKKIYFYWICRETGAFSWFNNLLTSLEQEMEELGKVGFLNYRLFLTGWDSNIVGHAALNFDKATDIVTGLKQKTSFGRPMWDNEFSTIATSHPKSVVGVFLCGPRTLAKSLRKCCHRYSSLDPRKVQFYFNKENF

[5] = tested on: Vero; assay: inhibition of WNV-induced cytopathic effect – cell-based, CPE readout (AID 1621); type: functional; settings: Chlorocebus sabaeus
[6] = biological target: T2, High affinity choline transporter 1 (Homo sapiens, UniProt Q9GZV3); assay: human choline transporter blockers, potency – cell-based, 5-point CRC, membrane potential dye, dose response (AID 504840); type: functional
T2 sequence (Q9GZV3 whole entry): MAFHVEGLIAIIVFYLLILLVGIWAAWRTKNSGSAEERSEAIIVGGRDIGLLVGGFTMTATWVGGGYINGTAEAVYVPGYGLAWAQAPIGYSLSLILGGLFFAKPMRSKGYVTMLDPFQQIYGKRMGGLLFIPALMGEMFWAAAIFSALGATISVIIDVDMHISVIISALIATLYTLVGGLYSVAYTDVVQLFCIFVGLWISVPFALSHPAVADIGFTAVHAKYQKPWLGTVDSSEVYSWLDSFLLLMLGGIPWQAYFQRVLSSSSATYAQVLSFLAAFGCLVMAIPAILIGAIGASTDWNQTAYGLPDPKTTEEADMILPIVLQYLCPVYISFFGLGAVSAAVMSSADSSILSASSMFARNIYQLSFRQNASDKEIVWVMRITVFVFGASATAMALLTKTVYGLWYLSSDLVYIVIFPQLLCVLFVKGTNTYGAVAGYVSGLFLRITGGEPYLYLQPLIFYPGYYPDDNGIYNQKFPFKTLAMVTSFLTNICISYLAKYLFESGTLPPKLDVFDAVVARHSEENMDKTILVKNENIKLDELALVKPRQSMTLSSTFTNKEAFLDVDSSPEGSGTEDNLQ

[7] = tested on: Vero; assay: cells; type: functional, cell-based; settings: Chlorocebus sabaeus
[8] = tested on: Vero; assay: cells; type: functional; settings: Chlorocebus sabaeus
[9] = biological target: T2, High affinity choline transporter 1; assay: human choline transporter blockers, potency – cell-based, 10-point CRC, membrane potential dye, dose response (AID 588401); type: functional;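 also: membrane potential dye fluorescence of choline-evoked depolarization via CHT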
[10] = biological target: Fructose-bisphosphate aldolase (Mycobacterium tuberculosis, UniProt P9WQA3); assay: Fluorescence-based biochemical high throughput dose response assay for inhibitors of the fructose-bisphosphate aldolase (FBA) of M. tuberculosis.; type: functional
Chain of Fructose-bisphosphate aldolase (P9WQA3 whole entry): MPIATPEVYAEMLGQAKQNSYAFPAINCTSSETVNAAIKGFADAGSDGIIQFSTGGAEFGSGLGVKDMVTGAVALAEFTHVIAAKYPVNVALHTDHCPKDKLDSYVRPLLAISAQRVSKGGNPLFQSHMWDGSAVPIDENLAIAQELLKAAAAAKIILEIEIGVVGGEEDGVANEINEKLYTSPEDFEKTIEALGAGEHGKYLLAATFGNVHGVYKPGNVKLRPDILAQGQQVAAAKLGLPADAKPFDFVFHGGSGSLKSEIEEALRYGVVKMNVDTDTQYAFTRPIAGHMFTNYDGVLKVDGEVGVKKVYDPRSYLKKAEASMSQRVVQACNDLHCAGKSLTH

[11] = tested on: BJ; assay: BJ-TERT fibroblast viability loss – cell-based, RAS-independent, luminescence, dose response (AID 1933); type: functional; settings: Homo sapiens
[12] = tested on: BJ; assay: cells; type: functional, cell-based; settings: Homo sapiens
[13] = Luminescence-based dose response cell-based high throughput screening assay for cytotoxic compounds using the IEC-6 intestinal epithelial cell line. [Related pubchem assays: 1858 (Summary AID.), 1825 (Counterscreen.), 1907 (Confirmation screen.)]; type: functional
[14] = tested on: BJ; assay: BJ-TERT-LT-ST fibroblast viability loss – cell-based, RAS-independent, luminescence, dose response (AID 1935); type: functional; settings: Homo sapiens;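 also: BJ fibroblasts immortalized with TERT plus LT and ST oncogenes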
[15] = DRD fibroblast viability loss – cell-based, non-viral oncogenic, luminescence, dose response (AID 1934); type: functional; settings: Homo sapiens
[16] = biological target: Luciferin 4-monooxygenase (Photinus pyralis, UniProt P08659); assay: inhibition of purified Photinus pyralis luciferase – biochemical, luminescence, dose response (AID 1891)
Chain of Luciferin 4-monooxygenase (P08659 whole entry): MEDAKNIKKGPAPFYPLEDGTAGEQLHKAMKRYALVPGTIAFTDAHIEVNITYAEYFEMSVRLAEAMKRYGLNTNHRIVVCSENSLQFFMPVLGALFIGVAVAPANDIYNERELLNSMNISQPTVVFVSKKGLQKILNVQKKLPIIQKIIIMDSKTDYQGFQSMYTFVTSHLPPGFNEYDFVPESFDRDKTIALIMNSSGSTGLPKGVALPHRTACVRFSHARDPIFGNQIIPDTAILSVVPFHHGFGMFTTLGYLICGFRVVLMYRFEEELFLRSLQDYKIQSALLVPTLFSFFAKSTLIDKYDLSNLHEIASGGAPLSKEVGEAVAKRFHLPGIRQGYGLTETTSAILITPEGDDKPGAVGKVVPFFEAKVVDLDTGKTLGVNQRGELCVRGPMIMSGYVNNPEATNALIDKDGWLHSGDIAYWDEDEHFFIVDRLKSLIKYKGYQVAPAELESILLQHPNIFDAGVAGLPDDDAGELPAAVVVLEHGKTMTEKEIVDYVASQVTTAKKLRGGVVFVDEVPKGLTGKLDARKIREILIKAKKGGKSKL

[17] = Luminescence Cell-Based Dose Confirmation HTS to Identify Inhibitors of Platelet Dense Granule Release. [Related pubchem assays: 1663 (Primary HTS), 1678 (Summary of Project)]; type: functional
[18] = Fluorescence Cell-Based Dose Response to Identify Inhibitors of Thrombin Receptor-Activating Peptide SFLLRN-Mediated P-Selectin Induction on Platelets. [Related pubchem assays: 1663 (Primary HTS), 1889 (retest at dose ), 1891 (counterscreen), 1678 (Project Summary)]; type: functional
[19] = biological target: T3, Tyrosine-protein phosphatase non-receptor type 7 (Homo sapiens, UniProt P35236); assay: HePTP tyrosine phosphatase activity blockers – biochemical, absorbance, leukemia target, primary screen (AID 521); type: functional
T3 sequence (P35236 whole entry): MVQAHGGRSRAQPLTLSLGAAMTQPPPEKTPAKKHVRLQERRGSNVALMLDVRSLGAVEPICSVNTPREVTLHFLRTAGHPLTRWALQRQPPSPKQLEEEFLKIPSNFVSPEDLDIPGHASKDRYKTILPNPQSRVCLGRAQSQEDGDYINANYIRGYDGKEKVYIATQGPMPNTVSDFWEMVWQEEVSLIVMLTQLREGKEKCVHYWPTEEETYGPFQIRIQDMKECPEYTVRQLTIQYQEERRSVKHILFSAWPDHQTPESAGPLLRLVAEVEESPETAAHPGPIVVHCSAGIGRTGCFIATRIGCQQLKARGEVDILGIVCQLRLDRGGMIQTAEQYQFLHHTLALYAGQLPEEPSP

[20] = biological target: Diphosphomevalonate decarboxylase (Streptococcus pneumoniae serotype 2 (strain D39 / NCTC 7466), UniProt Q9FD53); assay: diphosphomevalonate decarboxylase inhibitor confirmation – biochemical, cuvette format, coupled NADH fluorescence (AID 1028); type: functional
Chain of Diphosphomevalonate decarboxylase (Q9FD53 whole entry): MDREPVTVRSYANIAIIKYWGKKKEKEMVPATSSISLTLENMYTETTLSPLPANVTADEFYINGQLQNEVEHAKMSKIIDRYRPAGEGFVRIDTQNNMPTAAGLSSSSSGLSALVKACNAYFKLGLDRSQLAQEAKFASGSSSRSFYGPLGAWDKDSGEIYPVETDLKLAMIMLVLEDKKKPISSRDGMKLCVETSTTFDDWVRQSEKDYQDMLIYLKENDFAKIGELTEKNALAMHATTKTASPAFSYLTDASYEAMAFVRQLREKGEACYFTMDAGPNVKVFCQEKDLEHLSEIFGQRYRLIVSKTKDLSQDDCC

[21] = biological target: Genome polyprotein (Hepatitis C virus, UniProt Q2Q167); assay: disruption of hepatitis C core self-association – biochemical, TR-FRET, dose response (AID 2159); design: species or system Hepacivirus hominis;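 also: blocks dimerization of HCV core protein measured by TR-FRET between tagged core106 pairs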
Chain of Genome polyprotein (Q2Q167 whole entry): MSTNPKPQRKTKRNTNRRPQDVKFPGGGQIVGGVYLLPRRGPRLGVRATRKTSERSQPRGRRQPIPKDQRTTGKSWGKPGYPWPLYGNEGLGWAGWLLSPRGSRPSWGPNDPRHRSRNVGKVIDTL

[22] = biological target: Protein-tyrosine kinase 2-beta (Homo sapiens, UniProt Q14289);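 also: potency of inhibitors of PYK2 kinase phosphorylation of poly-GT substrate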
Chain of Protein-tyrosine kinase 2-beta (Q14289 whole entry, the tested form may be a part): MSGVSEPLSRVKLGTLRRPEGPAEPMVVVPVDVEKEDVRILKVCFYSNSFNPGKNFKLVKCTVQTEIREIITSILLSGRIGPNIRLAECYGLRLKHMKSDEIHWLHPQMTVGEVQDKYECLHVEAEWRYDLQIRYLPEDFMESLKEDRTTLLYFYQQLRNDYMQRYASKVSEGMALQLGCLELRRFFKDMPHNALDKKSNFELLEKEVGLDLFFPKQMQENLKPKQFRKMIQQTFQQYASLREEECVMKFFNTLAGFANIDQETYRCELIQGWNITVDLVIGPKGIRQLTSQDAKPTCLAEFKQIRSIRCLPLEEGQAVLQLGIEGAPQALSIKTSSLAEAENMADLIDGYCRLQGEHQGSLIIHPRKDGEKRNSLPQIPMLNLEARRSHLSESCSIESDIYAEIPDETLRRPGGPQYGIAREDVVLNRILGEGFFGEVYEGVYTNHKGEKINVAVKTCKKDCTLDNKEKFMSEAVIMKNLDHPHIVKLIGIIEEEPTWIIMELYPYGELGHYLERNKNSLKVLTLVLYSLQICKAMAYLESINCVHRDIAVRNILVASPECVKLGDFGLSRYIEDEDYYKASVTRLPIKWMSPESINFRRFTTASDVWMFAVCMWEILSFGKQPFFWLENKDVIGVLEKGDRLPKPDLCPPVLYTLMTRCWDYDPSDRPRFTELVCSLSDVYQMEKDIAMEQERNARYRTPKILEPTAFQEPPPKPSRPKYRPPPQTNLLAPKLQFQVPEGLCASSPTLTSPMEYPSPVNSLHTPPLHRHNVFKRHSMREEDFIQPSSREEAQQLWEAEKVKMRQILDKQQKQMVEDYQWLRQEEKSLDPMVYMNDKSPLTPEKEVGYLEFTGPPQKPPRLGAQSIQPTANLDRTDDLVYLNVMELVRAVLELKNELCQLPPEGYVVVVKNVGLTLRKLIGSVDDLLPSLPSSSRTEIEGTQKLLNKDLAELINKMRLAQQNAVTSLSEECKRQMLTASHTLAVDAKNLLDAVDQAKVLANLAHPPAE

[23] = biological target: T4, Estrogen receptor (Homo sapiens, UniProt P03372); assay: ERα coactivator recruitment enhancers – biochemical, TR-FRET, ERα LBD, dose response (AID 737)
T4 sequence (P03372 whole entry): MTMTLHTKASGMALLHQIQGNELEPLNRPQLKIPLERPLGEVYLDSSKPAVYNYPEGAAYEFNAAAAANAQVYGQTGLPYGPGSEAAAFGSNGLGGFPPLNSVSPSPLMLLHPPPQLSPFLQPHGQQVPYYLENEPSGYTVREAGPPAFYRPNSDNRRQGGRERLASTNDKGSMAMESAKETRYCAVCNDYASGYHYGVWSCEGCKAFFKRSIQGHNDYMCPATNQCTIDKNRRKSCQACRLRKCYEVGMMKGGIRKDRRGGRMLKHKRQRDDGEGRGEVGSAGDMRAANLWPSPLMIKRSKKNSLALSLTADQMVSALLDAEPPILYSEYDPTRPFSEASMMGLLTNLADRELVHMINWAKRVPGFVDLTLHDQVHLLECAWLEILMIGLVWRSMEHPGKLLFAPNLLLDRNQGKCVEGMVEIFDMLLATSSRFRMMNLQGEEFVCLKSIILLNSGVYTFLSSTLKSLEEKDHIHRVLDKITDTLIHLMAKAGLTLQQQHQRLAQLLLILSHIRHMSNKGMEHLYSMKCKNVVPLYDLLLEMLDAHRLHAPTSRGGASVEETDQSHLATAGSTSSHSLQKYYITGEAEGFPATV

[24] = biological target: Induced myeloid leukemia cell differentiation protein Mcl-1 (Homo sapiens, UniProt Q07820); assay: blockers of MCL1 binding to BIM peptide – biochemical, fluorescence polarization, BIM-BH3 peptide, 1536-well, dose response (AID 2217)
Chain of Induced myeloid leukemia cell differentiation protein Mcl-1 (Q07820 whole entry): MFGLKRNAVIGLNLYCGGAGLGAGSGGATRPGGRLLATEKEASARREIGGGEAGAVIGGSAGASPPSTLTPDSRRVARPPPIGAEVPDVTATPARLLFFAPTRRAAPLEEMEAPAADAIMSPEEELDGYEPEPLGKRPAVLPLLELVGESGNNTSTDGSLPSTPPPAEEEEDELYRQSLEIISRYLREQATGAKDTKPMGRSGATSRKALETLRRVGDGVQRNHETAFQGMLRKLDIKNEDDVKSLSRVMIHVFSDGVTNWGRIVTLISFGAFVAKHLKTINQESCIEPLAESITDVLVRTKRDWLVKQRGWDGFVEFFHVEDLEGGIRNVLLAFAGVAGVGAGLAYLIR

[25] = biological target: Bcl-2-like protein 1 (Homo sapiens, UniProt Q07817); assay: blockers of BCLXL peptide binding – biochemical, fluorescence polarization, 1536-well, selectivity assay for MCL1 inhibitor project, dose response (AID 2218)
Chain of Bcl-2-like protein 1 (Q07817 whole entry): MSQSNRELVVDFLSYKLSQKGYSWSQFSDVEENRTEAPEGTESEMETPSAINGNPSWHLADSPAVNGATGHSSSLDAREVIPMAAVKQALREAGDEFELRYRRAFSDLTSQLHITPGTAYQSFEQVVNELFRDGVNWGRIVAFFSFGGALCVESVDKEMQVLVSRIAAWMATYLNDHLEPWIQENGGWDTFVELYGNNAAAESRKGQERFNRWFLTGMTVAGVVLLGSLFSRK

**Q.** With Cc1sc2ncnc(SCC(=O)NC(=O)c3cccn3C)c2c1C as the compound, how does the IC50 [1] read?
**A.** Its IC50 is 6.6 µM (active).

**Q.** What about the IC50 [2] of the same compound?
**A.** Its IC50 is 3.97 µM (active).

**Q.** What about the EC50 [3] of the same compound?
**A.** Its EC50 is 7.84 µM (active).

**Q.** Which IC50 [4] does the source give for C=C(NNc1c(Cl)c(Cl)nc(C(=O)O)c1Cl)c1ccc2cc(OC)ccc2c1 here?
**A.** The IC50 was > 17 µM (not active).

**Q.** Which IC50 [5] does the source give for CN1CCN(CCNC(=O)c2ccc3nc(-c4ccc(F)cc4)c(-c4ccc(F)cc4)nc3c2)CC1 here?
**A.** The IC50 was 21.7 µM (active).

**Q.** And the IC50 [6]?
**A.** The IC50 was 4.58 µM (active).

**Q.** What about the IC50 [7] of the same compound?
**A.** The IC50 was > 25 µM (active).

**Q.** And the CC50 [8]?
**A.** The CC50 was 16.9 µM (active).

**Q.** What about the IC50 [9] of the same compound?
**A.** Its IC50 is 1.58 µM (active).

**Q.** And the IC50 [10]?
**A.** Its IC50 is > 1.11 µM (active).

**Q.** For CCCNc1nc(-c2ccccc2)c(C(=O)OCC)cc1C#N, which EC50 [11] is on record?
**A.** The EC50 was 8.98 µM (inconclusive).

**Q.** And the EC50 [12]?
**A.** The EC50 was 26 µM (active).

**Q.** What about the IC50 [13] of the same compound?
**A.** The IC50 was 4.2 µM (active).

**Q.** And the EC50 [14]?
**A.** Its EC50 is 4.54 µM (inconclusive).

**Q.** And the EC50 [15]?
**A.** The EC50 was 16.3 µM (active).

**Q.** Which EC50 [16] does the source give for CCOc1ccc2[nH]c(NCCO)nc2c1 here?
**A.** The EC50 was > 112 µM (not active).

**Q.** What about the EC50 [17] of the same compound?
**A.** The EC50 was 0.205 µM (active).

**Q.** And the EC50 [18]?
**A.** The EC50 was > 100 µM (not active).

**Q.** For O=C(Nc1ncnc2c1ncn2C1OC(COC(=O)c2ccccc2)C(F)C1O)c1ccccc1 (stereo not given), which IC50 [19] is on record?
**A.** Its IC50 is > 100 µM (not active).

**Q.** With CCCNC(=O)c1cccc(-n2sc3ccccc3c2=O)c1 as the compound, how does the IC50 [20] read?
**A.** Its IC50 is 18.4 µM (active).

**Q.** For Cc1ccc(S(=O)(=O)N2Cc3ccccc3CC2C(=O)Nc2ccc3c(c2)OCO3)cc1 (stereo not given), which IC50 [21] is on record?
**A.** Its IC50 is > 49.8 µM (not active).

**Q.** Which IC50 [22] does the source give for O=C(Oc1ccc(-c2cnc3ccccc3n2)cc1)c1ccc(Br)o1 here?
**A.** The IC50 was > 69.5 µM (not active).

**Q.** What about the EC50 [23] of the same compound?
**A.** Its EC50 is 6.97 µM (active).

**Q.** Which IC50 [24] does the source give for O=C(O)C(C(=O)/C=C/c1ccco1)=C1SCCS1 here?
**A.** Its IC50 is 21.9 µM (not active).

**Q.** And the IC50 [25]?
**A.** Its IC50 is > 109 µM (not active).
